In article doi:10.1101/2021.06.28.449968v1 (biorxiv, 2021):

Target: T1, full-length Abl1 NanoLuc fusion (Abl1-Nluc, NLuc-Abl1) (Homo sapiens, UniProt P00519)
T1 construct: full-length Abl1 fused to the C-terminus of NanoLuc luciferase (Promega plasmid), transiently expressed in HEK293T cells
Experiment: NanoBRET tracer isotherm in live HEK293T cells
Type: cell-based
Settings: labelled compound; […] h; ATP site; read-out: Kd,app
Excerpt: NanoBRET tracer isotherm in live HEK293T cells on full-length Abl1 NanoLuc fusion (Abl1-Nluc, NLuc-Abl1) | tracer probe (K-4, Promega), suitable for all mutants

T1 sequence (P00519 whole entry, the tested form may be a part): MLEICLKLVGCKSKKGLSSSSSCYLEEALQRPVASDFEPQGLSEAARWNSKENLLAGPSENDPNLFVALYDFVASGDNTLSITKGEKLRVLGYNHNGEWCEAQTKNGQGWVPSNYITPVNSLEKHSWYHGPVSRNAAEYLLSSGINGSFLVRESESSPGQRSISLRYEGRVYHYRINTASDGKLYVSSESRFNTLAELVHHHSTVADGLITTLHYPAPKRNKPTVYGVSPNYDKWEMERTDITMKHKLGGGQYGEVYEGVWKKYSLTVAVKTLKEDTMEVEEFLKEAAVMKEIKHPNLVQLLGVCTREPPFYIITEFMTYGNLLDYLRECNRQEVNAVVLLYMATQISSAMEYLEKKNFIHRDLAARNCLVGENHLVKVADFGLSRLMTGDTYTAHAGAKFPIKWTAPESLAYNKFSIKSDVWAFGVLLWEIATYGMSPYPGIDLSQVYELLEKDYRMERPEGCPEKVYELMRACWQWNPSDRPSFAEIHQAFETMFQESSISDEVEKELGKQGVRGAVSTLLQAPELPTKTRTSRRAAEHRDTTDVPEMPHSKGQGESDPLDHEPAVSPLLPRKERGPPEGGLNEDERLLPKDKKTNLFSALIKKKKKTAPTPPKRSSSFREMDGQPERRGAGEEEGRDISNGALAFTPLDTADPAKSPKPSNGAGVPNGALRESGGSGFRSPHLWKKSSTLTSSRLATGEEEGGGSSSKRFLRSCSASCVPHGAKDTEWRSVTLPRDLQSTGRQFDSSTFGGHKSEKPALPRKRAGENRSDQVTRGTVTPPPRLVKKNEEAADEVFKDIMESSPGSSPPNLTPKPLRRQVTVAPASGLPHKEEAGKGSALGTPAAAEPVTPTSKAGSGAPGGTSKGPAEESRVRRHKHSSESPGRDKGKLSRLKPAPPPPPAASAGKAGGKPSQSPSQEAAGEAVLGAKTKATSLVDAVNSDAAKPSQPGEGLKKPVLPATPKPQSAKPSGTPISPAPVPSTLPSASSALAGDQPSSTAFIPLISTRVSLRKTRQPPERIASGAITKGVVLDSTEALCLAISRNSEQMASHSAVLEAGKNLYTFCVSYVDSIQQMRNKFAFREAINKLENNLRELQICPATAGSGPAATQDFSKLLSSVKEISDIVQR

Kd: 38.6 nM
Substance: NanoBRET tracer K-4 (Promega)
